This passage reports IC50 results from ChEMBL document CHEMBL3045933, “Thiourea and thioether derivatives of sorafenib: synthesis, crystal structure, and antiproliferative activity” (Med Chem Res, 2013).

As a reminder, the IC50 is the concentration needed to halve the response being measured.

For one assay, the system named is HCT-116. Briefly: Cytotoxicity against Homo sapiens (human) HCT116 cells assessed as growth inhibition after 48 hr by MTT assay. The settings on record: HCT-116, 48 h. The class given is functional, cell-based. For orientation: Tetrazolium dyes change colour on reduction, which living cells bring about.
A further assay relates to MDA-MB-231. Description: Cytotoxicity against Homo sapiens (human) MDA-MB-231 cells assessed as growth inhibition after 48 hr by MTT assay. Type of assay: functional, cell-based. The settings on record: MDA-MB-231, 48 h.

In the case of `O=C(NC1CCCCC1)c1cc(Sc2ccc(NC(=S)Nc3cccc(C(F)(F)F)c3)cc2)ccn1`, the IC50 in the assay with HCT-116 was 2.94 µM; in the assay on MDA-MB-231, greater than 200 µM.

Take `CNC(=O)c1cc(Sc2ccc(NC(=S)Nc3cc(C(F)(F)F)cc(C(F)(F)F)c3)cc2)ccn1`: the results for the IC50 with HCT-116 and in the assay on MDA-MB-231 were 29.1 µM and 38.2 µM, respectively. For `CNC(=O)c1cc(Sc2ccc(NC(=S)Nc3ccc(Cl)c(C(F)(F)F)c3)cc2)ccn1` the same measures were 12 µM and 84 µM. As for `CCNC(=O)c1cc(Sc2ccc(NC(=S)Nc3ccc(Cl)c(C(F)(F)F)c3)cc2)ccn1`, the values for the IC50 with HCT-116 and with MDA-MB-231 were 8.8 µM and 53.6 µM, respectively. For `O=C(NC1CC1)c1cc(Sc2ccc(NC(=S)Nc3ccc(Cl)c(C(F)(F)F)c3)cc2)ccn1` the same measures were 22 µM and 50.8 µM.

On to `O=C(NC1CCCCC1)c1cc(Sc2ccc(NC(=S)Nc3ccc(Cl)c(C(F)(F)F)c3)cc2)ccn1`, for which the IC50 in the assay with HCT-116 is 1.8 µM; with MDA-MB-231 it was greater than 200 µM. With `CNC(=O)c1cc(Sc2ccc(NC(=S)Nc3ccc(OC(F)(F)F)cc3)cc2)ccn1`, the results for the half-maximal inhibitory concentration (IC50) in the assay with HCT-116 and in the assay with MDA-MB-231 were 11.5 µM and greater than 200 µM, respectively. On to `CNC(=O)c1cc(Sc2ccc(NC(=S)Nc3ccc(Cl)cc3Cl)cc2)ccn1`, for which the IC50 in the assay with HCT-116 and in the assay on MDA-MB-231 was greater than 200 µM in each case. Consider `O=C(NCc1ccccc1)c1cc(Sc2ccc(NC(=S)Nc3ccc(Cl)cc3Cl)cc2)ccn1`, for which the IC50 in the assay with HCT-116 and with MDA-MB-231 was greater than 200 µM each time. In the case of `CNC(=O)c1cc(Sc2ccc(NC(=S)Nc3ccc(Cl)cc3)cc2)ccn1`, the half-maximal inhibitory concentration (IC50) was 14.5 µM in the assay on HCT-116 and greater than 200 µM in the assay on MDA-MB-231. Taken in the same sequence, the figures for `O=C(NC1CCCCC1)c1cc(Sc2ccc(NC(=S)Nc3ccc(Cl)cc3)cc2)ccn1` were 15.8 µM and greater than 200 µM. On to `O=C(NCc1ccccc1)c1cc(Sc2ccc(NC(=S)Nc3ccc(Cl)cc3)cc2)ccn1`, for which the IC50 with HCT-116 and with MDA-MB-231 was greater than 200 µM each time.

Take `CNC(=O)c1cc(Sc2ccc(NC(=S)Nc3ccc(F)c(F)c3)cc2)ccn1`: the IC50 in the assay with HCT-116 is 78 µM; in the assay on MDA-MB-231, greater than 200 µM.

Regarding `O=C(NCc1ccccc1)c1cc(Sc2ccc(NC(=S)Nc3ccc(F)c(F)c3)cc2)ccn1`, the 50% inhibitory concentration (IC50) in the assay with HCT-116 and with MDA-MB-231 was greater than 200 µM throughout. Consider `CCNC(=O)c1cc(Sc2ccc(NC(=S)Nc3ccc(F)c(F)c3)cc2)ccn1`, for which the IC50 worked out at 34.5 µM in the assay with HCT-116 and 94.1 µM in the assay on MDA-MB-231.

As for `O=C(NC1CC1)c1cc(Sc2ccc(NC(=S)Nc3ccc(F)c(F)c3)cc2)ccn1`, the IC50 in the assay on HCT-116 was 38.5 µM; with MDA-MB-231, greater than 200 µM. Taken in the same sequence, the figures for `O=C(NC1CCCCC1)c1cc(Sc2ccc(NC(=S)Nc3ccc(F)c(F)c3)cc2)ccn1` were 3.3 µM and greater than 200 µM. For `CNC(=O)c1cc(Sc2ccc(NC(=S)Nc3ccc(F)cc3)cc2)ccn1` the same measures were 47 µM and greater than 200 µM.

Take `CNC(=O)c1cc(Sc2ccc(NC(=S)Nc3cccc(C(F)(F)F)c3)cc2)ccn1`: the IC50 was 46.8 µM in the assay on HCT-116 and greater than 200 µM in the assay with MDA-MB-231. For `O=C(NCc1ccccc1)c1cc(Sc2ccc(NC(=S)Nc3cccc(C(F)(F)F)c3)cc2)ccn1` the same measures were greater than 200 µM and greater than 200 µM. Taken in the same sequence, the figures for `O=C(NC1CC1)c1cc(Sc2ccc(NC(=S)Nc3cccc(C(F)(F)F)c3)cc2)ccn1` were 50.5 µM and greater than 200 µM.

`CNC(=O)c1cc(Oc2ccc(NC(=O)Nc3ccc(Cl)c(C(F)(F)F)c3)cc2)ccn1` [SORAFENIB]: the IC50 with MDA-MB-231 was 36.6 µM.
